System: Human umbilical vein endothelial cells (HUVECs)
Assay: eNOS activity analysis: NO, ONOO− and NO/ONOO− release from HUVECs of 50 genotyped donors in response to LA-419 (Example 2)
Format: cell-based
Conditions: LA-419 5 μM
Procedure: Concurrent measurements of NO and ONOO^− were carried out with tandem electrochemical nanosensors combined into one working unit with a total diameter of 200-500 nm (FIG. 1). Their design was based on previously developed and well-characterized chemically modified carbon-fiber technology (Malinski and Taha, 1992; Lvovich and Scheeline, 1997). Each of the nanosensors was made by depositing a sensing material on the tip of a carbon fiber (length 4-5 μm, diameter 0.2-0.5 μm). The fibers were sealed with nonconductive epoxy and electrically connected to copper wires with conductive silver epoxy. A conductive film of polymeric nickel (II) tetrakis(3-methoxy-4-hydroxyphenyl)porphyrin for the NO-sensor and polymeric film of Mn (III) [2.2]paracyclophanylporphyrin was used for the ONOO^−-sensor.
A module of NO/ONOO^− nanosensors (diameter 1-2 μm) with a platinum wire (0.1 mm) counter electrode and saturated calomel reference electrode (SCE) were applied. Differential pulse voltammetry (DPV) and amperometry were performed with a computer-based Gamry VFP600 multichannel potentiostat. DPV was used to measure the basal NO and ONOO^− concentrations, and amperometry was used to measure changes in NO and ONOO^− concentrations from its basal level with time. The DPV current at the peak potential characteristic for NO oxidation (0.65 V) and ONOO^− reduction (−0.45 V) was directly proportional to the local concentrations of these compounds in the immediate vicinity of the sensor. Linear calibration curves (current vs. concentration) were constructed for each sensor from 10 nM to 3 μM before and after measurements with aliquots of NO and ONOO^− standard solutions, respectively. The detection limit of the sensors was 1.0 nM.
The quantification of each analyte (concentration in nM) was performed using a maximum current from amperograms and standard calibration curves. A reproducibility of measurements with nanosensors is relatively high (between 5-12%). […] The sensors were slowly raised 5±2 μm from the surface of a single endothelial cell. The eNOS agonist, calcium ionophore A23187 (CaI) as well as the different drugs were then added to the surrounding media at the cell surface with a nanoinjector that was also positioned by a computer controlled-micromanipulator.
This example describes the genotype-specific response of the three major eNOS variants to 1 μM and 5 μM concentrations of LA-419. The three major genetic polymorphisms studied were the Glu298Asp variant (E298D or 894G→T) in exon 7 of […], the −786T→C variant in the promoter region, and the intron 4 polymorphism (VNTR). All of these variants have possible effects on the cardiovascular system and endothelial dysfunction. For this study, human umbilical vein endothelial cells (HUVECs) from 50 donors between 18 and 32 years of age were used.
For the analysis several analysis techniques were employed. First, the effect of genotype on NO and ONOO^− release was explored within the different concentrations of LA-419 (control, 1 μM, 5 μM), calculated as the average peak release (nmols/L) of NO, ONOO^−, and NO/ONOO^−. The effect of genotype on the net increase in NO, ONOO^−, and NO/ONOO^− for LA-419 (1 μM and 5 μM) as compared to control was also measured. In addition, an analysis was done on the effect of genotype on the % change in NO, ONOO^−, and NO/ONOO^− production for LA-419 (1 μM and 5 μM), calculated as:
% Change=[(avg. LA-419−avg. control)/(avg. control)]*100
Finally, an evaluation was undertaken concerning the effect of genotype on the production of NO, ONOO^−, and NO/ONOO^− as the fold difference of control for LA-419 (1 μM and 5 μM), calculated as:
Fold Difference=(avg. LA-419)/(avg. control)
Within each calculation technique the results were compared for statistical significance using a non-parametric ANOVA Kruskal-Wallace test or a non-parametric Mann-Whitney U test. Statistical significance was set at a p-value <0.05 in a two-tailed distribution. […]

[1] = HUVECs Intron 4 variant b/a, a/a, c/c
[2] = HUVECs T-786C variant T/C & C/C

Compound: CC(=O)SC1COC2C(O[N+](=O)[O-])COC12 (stereo not drawn) [LA-419, S-(6-Nitro-oxi-hexahydro-furo[3,2-b]furan-3-1-il)thioacetate]
- Peak release ONOO− (mean ± sd) (HUVECs G894T variant G/G): 288.82 (78.22) nmols/L
- % Change Ratio, % Change NO/% Change ONOO− (mean ± sd) (HUVECs G894T variant G/T): −0.88 (0.60)
- Net increase over control NO (mean ± sd) (HUVECs G894T variant G/T): 45.87 (19.24) nmols/L
- Net increase over control NO/ONOO− (mean ± sd) (HUVECs G894T variant G/T): −0.94 (0.88)
- Net increase over control ONOO− (mean ± sd) (HUVECs G894T variant G/T): −65.80 (26.77) nmols/L
- Peak release NO (mean ± sd) (HUVECs G894T variant G/T): 400.63 (80.27) nmols/L
- Peak release NO/ONOO− (mean ± sd) (HUVECs G894T variant G/T): 1.44 (0.49)
- Peak release ONOO− (mean ± sd) (HUVECs G894T variant G/T): 300.15 (75.86) nmols/L
- Net increase over control NO (mean ± sd) (HUVECs G894T variant G/T & T/T): 45.12 (21.46) nmols/L
- Net increase over control NO/ONOO− (mean ± sd) (HUVECs G894T variant G/T & T/T): −0.91 (0.90)
- Net increase over control ONOO− (mean ± sd) (HUVECs G894T variant G/T & T/T): −69.51 (27.46) nmols/L
- Peak release NO (mean ± sd) (HUVECs G894T variant G/T & T/T): 398.42 (88.37) nmols/L
- Peak release NO/ONOO− (mean ± sd) (HUVECs G894T variant G/T & T/T): 1.39 (0.53)
- Peak release ONOO− (mean ± sd) (HUVECs G894T variant G/T & T/T): 314.55 (84.72) nmols/L
- % Change Ratio, % Change NO/% Change ONOO− (mean ± sd) (HUVECs G894T variant T/T): −0.80 (0.73)
- Net increase over control NO (mean ± sd) (HUVECs G894T variant T/T): 42.40 (30.77) nmols/L
- Net increase over control NO/ONOO− (mean ± sd) (HUVECs G894T variant T/T): −0.78 (1.05)
- Net increase over control ONOO− (mean ± sd) (HUVECs G894T variant T/T): −82.87 (28.56) nmols/L
- Peak release NO (mean ± sd) (HUVECs G894T variant T/T): 390.47 (124.39) nmols/L
- Peak release NO/ONOO− (mean ± sd) (HUVECs G894T variant T/T): 1.21 (0.68)
- Peak release ONOO− (mean ± sd) (HUVECs G894T variant T/T): 366.40 (103.55) nmols/L
- Net increase over control NO (mean ± sd) (HUVECs Intron 4 variant a/a): 52.00 (16.74) nmols/L
- Net increase over control NO/ONOO− (mean ± sd) (HUVECs Intron 4 variant a/a): 0.41 (0.19)
- Net increase over control ONOO− (mean ± sd) (HUVECs Intron 4 variant a/a): −63.78 (14.11) nmols/L
- Peak release NO (mean ± sd) (HUVECs Intron 4 variant a/a): 438.33 (79.68) nmols/L
- Peak release NO/ONOO− (mean ± sd) (HUVECs Intron 4 variant a/a): 1.48 (0.64)
- Peak release ONOO− (mean ± sd) (HUVECs Intron 4 variant a/a): 331.22 (117.30) nmols/L
- Net increase over control NO (mean ± sd) (HUVECs Intron 4 variant b/a): 54.53 (23.50) nmols/L
- Net increase over control NO/ONOO− (mean ± sd) (HUVECs Intron 4 variant b/a): 0.45 (0.22)
- Net increase over control ONOO− (mean ± sd) (HUVECs Intron 4 variant b/a): −72.30 (25.81) nmols/L
- Peak release NO (mean ± sd) (HUVECs Intron 4 variant b/a): 375.20 (81.45) nmols/L
- Peak release NO/ONOO− (mean ± sd) (HUVECs Intron 4 variant b/a): 1.42 (0.61)
- Peak release ONOO− (mean ± sd) (HUVECs Intron 4 variant b/a): 295.73 (85.11) nmols/L
- Net increase over control NO (mean ± sd) [1]: 47.30 (22.42) nmols/L
- Net increase over control NO/ONOO− (mean ± sd) [1]: 0.44 (0.20)
- Net increase over control ONOO− (mean ± sd) [1]: −72.31 (23.65) nmols/L
- Peak release NO (mean ± sd) [1]: 392.83 (80.05) nmols/L
- Peak release NO/ONOO− (mean ± sd) [1]: 1.43 (0.57)
- Peak release ONOO− (mean ± sd) [1]: 305.67 (86.01) nmols/L
- Net increase over control NO (mean ± sd) (HUVECs Intron 4 variant b/b): 47.30 (22.42) nmols/L
- Net increase over control NO/ONOO− (mean ± sd) (HUVECs Intron 4 variant b/b): 0.43 (0.20)
- Net increase over control ONOO− (mean ± sd) (HUVECs Intron 4 variant b/b): −70.32 (30.56) nmols/L
- Peak release NO (mean ± sd) (HUVECs Intron 4 variant b/b): 400.83 (81.57) nmols/L
- Peak release NO/ONOO− (mean ± sd) (HUVECs Intron 4 variant b/b): 1.46 (0.51)
- Peak release ONOO− (mean ± sd) (HUVECs Intron 4 variant b/b): 298.99 (79.66) nmols/L
- Net increase over control NO (mean ± sd) (HUVECs Intron 4 variant c/c): 64.00 (0) nmols/L
- Net increase over control NO/ONOO− (mean ± sd) (HUVECs Intron 4 variant c/c): 0.46 (0)
- Net increase over control ONOO− (mean ± sd) (HUVECs Intron 4 variant c/c): −98.00 (0) nmols/L
- Peak release NO (mean ± sd) (HUVECs Intron 4 variant c/c): 432.67 (0) nmols/L
- Peak release NO/ONOO− (mean ± sd) (HUVECs Intron 4 variant c/c): 1.32 (0)
- Peak release ONOO− (mean ± sd) (HUVECs Intron 4 variant c/c): 328.33 (0) nmols/L
- % Change Ratio, % Change NO/% Change ONOO− (mean ± sd) (HUVECs T-786C variant C/C): −0.62 (0.39)
- Net increase over control NO (mean ± sd) (HUVECs T-786C variant C/C): 38.00 (17.39) nmols/L
- Net increase over control NO/ONOO− (mean ± sd) (HUVECs T-786C variant C/C): −0.52 (0.36)
- Net increase over control ONOO− (mean ± sd) (HUVECs T-786C variant C/C): −82.58 (26.16) nmols/L
- Peak release NO (mean ± sd) (HUVECs T-786C variant C/C): 370.17 (86.78) nmols/L
- Peak release NO/ONOO− (mean ± sd) (HUVECs T-786C variant C/C): 1.32 (0.71)
- Peak release ONOO− (mean ± sd) (HUVECs T-786C variant C/C): 322.33 (110.70) nmols/L
- % Change Ratio, % Change NO/% Change ONOO− (mean ± sd) (HUVECs T-786C variant T/C): −0.81 (0.56)
- Net increase over control NO (mean ± sd) (HUVECs T-786C variant T/C): 47.26 (23.70) nmols/L
- Net increase over control NO/ONOO− (mean ± sd) (HUVECs T-786C variant T/C): −0.86 (0.80)
- Net increase over control ONOO− (mean ± sd) (HUVECs T-786C variant T/C): −65.86 (23.41) nmols/L
- Peak release NO (mean ± sd) (HUVECs T-786C variant T/C): 396.81 (95.72) nmols/L
- Peak release NO/ONOO− (mean ± sd) (HUVECs T-786C variant T/C): 1.41 (0.56)
- Peak release ONOO− (mean ± sd) (HUVECs T-786C variant T/C): 310.97 (82.59) nmols/L
- Net increase over control NO (mean ± sd) [2]: 45.89 (22.83) nmols/L
- Net increase over control NO/ONOO− (mean ± sd) [2]: −0.81 (0.76)
- Net increase over control ONOO− (mean ± sd) [2]: −68.33 (24.07) nmols/L
- Peak release NO (mean ± sd) [2]: 392.86 (93.35) nmols/L
- Peak release NO/ONOO− (mean ± sd) [2]: 1.39 (0.57)
- Peak release ONOO− (mean ± sd) [2]: 312.65 (84.87) nmols/L
- % Change Ratio, % Change NO/% Change ONOO− (mean ± sd) (HUVECs T-786C variant T/T): −0.90 (0.47)
- Net increase over control NO (mean ± sd) (HUVECs T-786C variant T/T): 55.91 (19.06) nmols/L
- Net increase over control NO/ONOO− (mean ± sd) (HUVECs T-786C variant T/T): −0.95 (0.67)
- Net increase over control ONOO− (mean ± sd) (HUVECs T-786C variant T/T): −76.48 (33.23) nmols/L
- Peak release NO (mean ± sd) (HUVECs T-786C variant T/T): 405.83 (58.51) nmols/L
- Peak release NO/ONOO− (mean ± sd) (HUVECs T-786C variant T/T): 1.52 (0.45)
- Peak release ONOO− (mean ± sd) (HUVECs T-786C variant T/T): 286.47 (76.65) nmols/L
- % increase in peak NO generation, range within genotype groups (Table u1): 11.6 to 17.4%
- increase in NO/OONO− ratio, range over all genotypes (Table u3): 37-53%
- peak release of NO versus control (all genotypes (Table b1)): increase
- greater net increase in NO, major allele variant vs minor allele carriers (exon 7, p 0.10): 22%
- greater net increase in NO, major allele variant vs minor allele carriers (promoter, p 0.12): 22%
